Reference: PMC5049785, “Characterization of Novel Antimalarial Compound ACT-451840: Preclinical Assessment of Activity and Dose–Efficacy Modeling” (PLoS Medicine, 2016)

Legend:
[1] = test system: P. falciparum NF54 strain; experiment: [3H]-hypoxanthine incorporation assay, NF54; format: cell-based, Plasmodium falciparum; settings: mean ± SD
Description: In vitro time-, stage-, and concentration-dependent effects were assessed using pyrimethamine as a stage-specific and slow-acting control, as described elsewhere.

Cam3.II^C580Y parasites = experiment: microbe, parasite or virus in culture; format: cell-based, P. falciparum
Description: (§1) Parasites were cultured at Columbia University Medical Center (New York, USA) as previously described (1). Cam3.II and V1/S parasites, which had been genetically engineered to express K13 wild-type or K13 C580Y were seeded in a 96-well plate at 0.2% parasitemia and 1% hematocrit (2). […] Parasites were then stained with SYBR Green I (Invitrogen) and MitoTracker Deep Red (ThermoFisher Scientific) for 20 minutes at 37 °C (3). Stained parasites were detected using a BD Accuri 6 Flow Cytometer, and analyzed using FlowJo Software. IC50 values were determined by nonlinear regression using GraphPad Prism 6.0. For statistical analyses, Student’s t-tests were performed, and significance was set at P < 0.05.
(§2) Values indicate mean ± SEM, shown in nM. Significance determined by Student's t-test against parental lines.

[2] = test system: Cam3.II^rev parasites (K13 wild-type); experiment: microbe, parasite or virus in culture; format: cell-based, P. falciparum
Description: as §1, §2

[3] = test system: V1/S parasites (K13 wild-type); experiment: microbe, parasite or virus in culture; format: cell-based, P. falciparum
Description: as §1, §2

V1/S^C580Y parasites = experiment: microbe, parasite or virus in culture; format: cell-based, P. falciparum
Description: as §1, §2

[4] = test system: Cam3.II^C580Y and Cam3.II^rev 0–3 h postinvasion rings; experiment: Ring-stage survival assay (RSA0-3h); format: cell-based, P. falciparum; settings: 6-h pulse, 35–700 nM, survival assessed 66 h later
Description: Ring-stage survival assays (RSA0-3h) were carried out at Columbia University Medical Center (New York, United States) as previously described. Parasite cultures were synchronized using 5% sorbitol (Sigma-Aldrich), and schizonts were incubated in RPMI-1640 containing 15 units/ml sodium heparin for 15 min at 37°C to disrupt agglutinated erythrocytes. These schizonts were concentrated over a gradient of 75% Percoll (Sigma-Aldrich), washed once in RPMI-1640, and incubated for 3 h with fresh erythrocytes to allow time for merozoite invasion. Cultures were then subjected again to sorbitol treatment to eliminate remaining schizonts. The 0–3 h postinvasion rings were adjusted to 1% parasitemia and 2% hematocrit in 1 mL volumes (in 48-well plates) and exposed to a range of ACT-451840 drug concentration (700–35 nM) or 0.1% DMSO for 6 h. Duplicate wells were established for each parasite line ± drug concentration. One-mL cultures were then transferred to 15-mL conical tubes, centrifuged at 800xg for 5 min to pellet the cells, and the supernatants carefully removed. As a washing step to remove drug, 10 mL culture medium were added to each tube, and the cells were resuspended, centrifuged, and the medium was aspirated. […] Stained parasites were detected using a BD Accuri 6 Flow Cytometer and analyzed using FlowJo Software. IC50 values were determined by nonlinear regression using GraphPad Prism 6.0. […]

[5] = test system: P. falciparum clinical isolates (Papua, Indonesia); experiment: Ex vivo drug susceptibility, P. falciparum clinical isolates; format: cell-based, Plasmodium falciparum; settings: P. falciparum clinical isolates, n = 27 (closed symbols); read-out: median IC50
Description: […]. Thick blood films made from each well were stained with 5% Giemsa solution for 30 min and examined microscopically. The number of schizonts per 200 asexual-stage parasites was determined for each drug concentration and normalized to the control well.

[6] = test system: P. falciparum NF54 male gametocytes; experiment: P. falciparum dual gamete formation assay, male; format: cell-based, Plasmodium falciparum; settings: 24 h incubation; ± SD; read-out: IC50 male gamete formation (exflagellation centers)
Description: Mature P. falciparum NF54 gametocytes were cultured at Imperial College London (London, United Kingdom), as previously described. […] Male gamete formation was quantified by computer-aided automated identification and counting of exflagellation centers. Female gamete formation was visualized by live immunofluorescence with a Cy3-conjugated antibody specific for Pfs25—a female gamete expressed surface protein. […] IC50 values were calculated using GraphPad Prism version 6 using the logarithmic versus normalized response (variable slope) function (Graphpad Software, San Diego, US).

[7] = test system: P. falciparum oocysts in Anopheles stephensi; experiment: Standard membrane feeding assay, direct mode; format: cell-based, Plasmodium falciparum; settings: compound added at the time of mosquito feeding, concentrations up to 1 μM
Description: ACT-451840 was tested in the standard membrane feeding assay at TropIQ (Nijmegen, The Netherlands) in two modes, as previously described. In the direct mode, the compound was directly added to a bloodmeal containing mature stage V gametocytes that was fed to Anopheles stephensi mosquitoes. […] Seven days after the bloodmeal, the number of oocysts in the midgut was determined by microscopy for both modes. […] Vehicle control (0.1% DMSO) and positive control (10 μM dihydroartemisinin) were included. Twenty mosquitoes were dissected per sample, and oocyst load was analyzed per mosquito.

[8] = Safety pharmacology in rats; format: in vivo; settings: rats dosed up to 1,000 mg/kg
[9] = Safety pharmacology in dogs; format: in vivo; settings: dogs dosed up to 500 mg/kg
P. falciparum = experiment: Prediction of human efficacious exposure
From the text: In this PK/PD approach, the robust endpoint of animal survival and cure were chosen for clinical relevance. […] The alternative approach used to assess efficacious concentrations in vivo calculated the minimum inhibitory concentration and estimated a minimum parasiticidal concentration from modeling of the exposure–efficacy in the P. falciparum murine model.

[10] = cited from earlier work

Q: With `CC(=O)N1CCN(c2ccc(CN(C(=O)/C=C/c3ccc(C(C)(C)C)cc3)[C@@H](Cc3ccccc3)C(=O)N3CCN(Cc4ccc(C#N)cc4)CC3)cc2)CC1` [ACT-451840] as the molecule, how does the IC90 ([1]; NF54, n ≥ 3) read?
A: 0.6 nM

Q: What about the IC99 ([1]; NF54, n ≥ 3) of the same molecule?
A: 1.2 ± 0.0 nM

Q: And the IC50 ([1]; read-out: 50% inhibitory concentration (IC50), NF54, no resistance, n = 3)?
A: 0.4 nM

Q: What about the IC50 fold change (Cam3.II^C580Y parasites; Cam3.II^C580Y versus Cam3.II^rev) of the same molecule?
A: 1.1

Q: What about the IC50 (Cam3.II^C580Y parasites; Cam3.II^C580Y, 72 h, mean ± SEM, read-out: IC50) of the same molecule?
A: 2.3 ± 0.6 nM

Q: And the IC50 fold change ([2]; Cam3.II^rev (parental reference line))?
A: 1.0

Q: What about the IC50 ([2]; Cam3.II^rev, 72 h, mean ± SEM, read-out: IC50) of the same molecule?
A: 2.1 ± 0.3 nM

Q: What about the IC50 fold change ([3]; V1/S (parental reference line)) of the same molecule?
A: 1.0

Q: And the IC50 ([3]; V1/S, 72 h, mean ± SEM, read-out: IC50)?
A: 0.21 ± 0.001 nM

Q: And the IC50 fold change (V1/S^C580Y parasites; V1/S^C580Y versus V1/S)?
A: 0.9

Q: What about the IC50 (V1/S^C580Y parasites; V1/S^C580Y, 72 h, mean ± SEM, read-out: IC50) of the same molecule?
A: 0.19 ± 0.015 nM

Q: And the “ring-stage survival rates, wild-type K13 allele versus C580Y mutation” value [4]?
A: No difference in survival rates

Q: What about the IC50 [5] of the same molecule?
A: 2.5 nM

Q: And the IC50 [6]?
A: 5.89 nM

Q: And the “activity against P. falciparum oocysts” value [7]?
A: did not show any activity

Q: And the “effects on central nervous and respiratory parameters” value [8]?
A: no effects

Q: And the “effect on cardiovascular parameters” value [9]?
A: no effect

Q: What about the “efficacious human total AUC, expressed in mouse blood” value (P. falciparum; 227 x 23) of the same molecule?
A: 5,250 ng*h/mL

Q: And the “predicted total efficacious human plasma AUC” value (P. falciparum; corrected for blood/plasma ratio of 0.6)?
A: 8,750 ng*h/mL

Q: What about the “time for which the threshold of […] would be covered” value (P. falciparum; single dose of 500 mg, fed state, healthy subjects) of the same molecule?
A: 72 h

Q: And the “exposure (AUC) observed in humans” value ([10]; single 500 mg dose, fed human subjects)?
A: 1,408 ng*h/mL

Q: And the terminal half-life ([10]; single ascending dose study)?
A: 34 h

Q: What about the tolerability ([10]; single ascending dose, first-in-man study in healthy male participants) of the same molecule?
A: well tolerated
